Measured values published in US12202843B2, “Muscarinic receptor agonists” (Nxera Pharma UK Limited, priority 2014, dated 2025).

How the values were obtained:
[1] = target: T1, human muscarinic M1 receptor (Homo sapiens, UniProt P11229); assay: Alphascreen Surefire phospho-ERK1/2 functional assay, M1; type: cell-based; details: for EC50: CHO cells stably expressing human M1, read-out: pEC50 M1 (converted); for Emax: CHO, read-out: % Emax cf. ACh, M1, CHO cells stably expressing human M1, relative to ACh; for % Emax cf. ACh, M1: CHO cells stably expressing human M1, relative to ACh
T1 sequence (P11229 1-460): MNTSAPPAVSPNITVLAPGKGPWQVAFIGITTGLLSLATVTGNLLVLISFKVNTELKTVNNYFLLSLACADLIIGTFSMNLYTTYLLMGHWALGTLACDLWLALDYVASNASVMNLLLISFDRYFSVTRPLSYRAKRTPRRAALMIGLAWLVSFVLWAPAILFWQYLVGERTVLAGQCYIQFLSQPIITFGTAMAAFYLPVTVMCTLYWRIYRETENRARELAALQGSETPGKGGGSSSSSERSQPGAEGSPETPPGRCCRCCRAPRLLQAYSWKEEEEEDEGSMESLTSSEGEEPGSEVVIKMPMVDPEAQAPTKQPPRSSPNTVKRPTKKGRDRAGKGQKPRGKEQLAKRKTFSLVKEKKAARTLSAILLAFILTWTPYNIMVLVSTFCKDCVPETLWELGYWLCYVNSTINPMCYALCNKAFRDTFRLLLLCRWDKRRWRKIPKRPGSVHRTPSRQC
Description: (§1) ERK1/2 phosphorylation is a downstream consequence of both Gq/11 and Gi/o protein coupled receptor activation, making it highly suitable for the assessment of M1, M3 (Gq/11 coupled) and M2, M4 receptors (Gi/o coupled), rather than using different assay formats for different receptor subtypes. CHO cells stably expressing the human muscarinic M1, M2, M3 or M4 receptor were plated (25K/well) onto 96-well tissue culture plates in MEM-alpha+10% dialysed FBS. Once adhered, cells were serum-starved overnight. Agonist stimulation was performed by the addition of 5 μL agonist to the cells for 5 min (37° C.). Media was removed and 50 μL of lysis buffer added. […] Plates were incubated for 2 h with gentle agitation in the dark and then read on a PHERAstar plate reader.
(§2) pEC50 and Emax figures were calculated from the resulting data for each receptor subtype.

[2] = target: T2, human muscarinic M4 receptor (Homo sapiens, UniProt P08173); assay: Alphascreen Surefire phospho-ERK1/2 functional assay, M4; type: cell-based; details: for EC50: CHO cells stably expressing human M4, read-out: pEC50 M4 (converted); for Emax: CHO, read-out: % Emax cf. ACh, M4, CHO cells stably expressing human M4, relative to ACh; for % Emax cf. ACh, M4: CHO cells stably expressing human M4, relative to ACh
T2 construct: expressed in transfected cells
T2 sequence (P08173 1-479): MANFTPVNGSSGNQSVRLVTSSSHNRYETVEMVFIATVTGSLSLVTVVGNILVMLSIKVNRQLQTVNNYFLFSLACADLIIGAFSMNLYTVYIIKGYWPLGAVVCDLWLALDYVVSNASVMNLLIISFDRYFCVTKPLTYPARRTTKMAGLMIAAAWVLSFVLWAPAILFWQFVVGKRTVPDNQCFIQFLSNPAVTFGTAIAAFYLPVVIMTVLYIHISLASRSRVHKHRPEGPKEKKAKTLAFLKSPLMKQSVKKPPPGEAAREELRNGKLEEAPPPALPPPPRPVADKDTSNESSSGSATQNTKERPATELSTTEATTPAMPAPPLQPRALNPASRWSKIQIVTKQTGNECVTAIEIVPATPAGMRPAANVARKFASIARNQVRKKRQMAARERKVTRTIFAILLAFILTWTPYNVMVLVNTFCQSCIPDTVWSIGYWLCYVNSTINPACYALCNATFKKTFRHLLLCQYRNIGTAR
Description: as §1, §2

`CCOC(=O)N1[C@@H]2CC[C@H]1CC(N1CCC3(CC1)OC(=O)NC3Cc1ccccn1)C2` (mixture of isomers) [Example 2-23, ethyl-3-(2-oxo-4-(pyridin-2-ylmethyl)-1-oxa-3,8-diazaspiro[4.5]decan-8-yl)-8-azabicyclo[3.2.1]octane-8-carboxylate] showed an EC50 [1] of 501 nM, an Emax [1] of 86% and an EC50 [2] greater than 20000 nM. For the same compound, the Emax [2] was 12%.
Compound `COC(=O)N1C2CCC1CC(N1CCC3(CC1)CNC(=O)C3)C2` (single isomer, unassigned) [Example 2-1 Isomer 2] has an EC50 [1] of 631 nM, an Emax [1] of 72% and an EC50 [2] of 1580 nM. For the same compound, the Emax [2] was 25%.
In the case of `O=C1CC2(CCN(C3CC4CCC(C3)N4C(=O)OCCF)CC2)CN1` (single isomer, unassigned) [Example 2-3 Isomer 1], the EC50 [1] is reported as 398 nM, the “% Emax cf. ACh, M1” value ([1]; listed as 2-3 Isomer 1) is reported as 85% and the EC50 [2] is reported as 2000 nM. The “% Emax cf. ACh, M4” value ([2]; listed as 2-3 Isomer 1) was 47%.
In the case of `CCCC(=O)N1C2CCC1CC(N1CCC3(CC1)CNC(=O)C3)C2` (single isomer, unassigned) [Example 2-6 Isomer 2], the EC50 [1] is reported as 501 nM, the Emax [1] is reported as 35% and the EC50 [2] is reported as 15800 nM. It also gave an Emax [2] of 32%.
Compound `CCOC(=O)N1C2CCC1C(F)C(N1CCC3(CC1)CNC(=O)C3)C2` (single isomer, unassigned) [Example 2-11 Isomer 1] has an EC50 [1] of 631 nM, an Emax [1] of 95% and an EC50 [2] of 1000 nM. For the same compound, the Emax [2] was 53%.
For `CCOC(=O)N1C2CCC1CC(N1CCC3(CC1)CNC(=O)O3)C2` (single isomer, unassigned) [Example 2-14 Isomer 1], the EC50 [1] was 200 nM, the Emax [1] was 108% and the EC50 [2] was 501 nM. The Emax [2] was 55%.
With `CCOC(=O)N1C2CCC1CC(N1CCC3(CC1)OC(=O)NC3C)C2` (single isomer, unassigned) [Example 2-15 Isomer 1] the EC50 [1] was 100 nM, the Emax [1] was 101% and the EC50 [2] was greater than 20000 nM. For the same compound, the Emax [2] was 10%.
In the case of `CCOC(=O)N1C2CCC1CC(N1CCC3(CC1)OC(=O)NC3CC)C2` (single isomer, unassigned) [Example 2-16 Isomer 2], the EC50 [1] is reported as 631 nM, the “% Emax cf. ACh, M1” value ([1]; listed as 2-16 Isomer 2) is reported as 68% and the EC50 [2] is reported as 200 nM. The “% Emax cf. ACh, M4” value ([2]; listed as 2-16 Isomer 2) was 51%.
Compound `CCOC(=O)N1C2CCC1CC(N1CCC3(CC1)OC(=O)NC3(C)C)C2` (single isomer, unassigned) [Example 2-18 Isomer 1] has an EC50 [1] of 251 nM, an Emax [1] of 55% and an EC50 [2] greater than 20000 nM. The Emax [2] was 11%.
For `CCOC(=O)N1C2CCC1C(F)C(N1CCC3(CC1)CNC(=O)O3)C2` (single isomer, unassigned) [Example 2-19 Isomer 2], the EC50 [1] was 1000 nM, the Emax [1] was 94% and the EC50 [2] was 3980 nM. It also gave an Emax [2] of 74%.
For `CCOC(=O)N1C2CCC1CC(N1CCC3(CC1)CC(=O)N(C(C)C)C3)C2` (single isomer, unassigned) [Example 2-26 Isomer 2], the EC50 [1] was 631 nM, the Emax [1] was 43% and the EC50 [2] was 631 nM. For the same compound, the Emax [2] was 22%.
Compound `CCOC(=O)N1C2CCC1CC(N1CCC3(CC1)CC(=O)N(CC(C)C)C3)C2` (single isomer, unassigned) [Example 2-27 Isomer 2] has an EC50 [1] of 398 nM, an Emax [1] of 38% and an EC50 [2] greater than 20000 nM. For the same compound, the Emax [2] was 14%.
Compound `CCOC(=O)N1C2CCC1CC(N1CCC3(CC1)CC(=O)N(CC1CC1)C3)C2` (single isomer, unassigned) [Example 2-28 Isomer 2] has an EC50 [1] of 501 nM, an Emax [1] of 57% and an EC50 [2] of 316 nM. For the same compound, the Emax [2] was 27%.
`[2H]C([2H])(C)OC(=O)N1C2CCC1CC(N1CCC3(CC1)CNC(=O)C3)C2` (single isomer, unassigned) [Example 2-30 Isomer 1, (1,1-^2H2)ethyl 3-(3-oxo-2,8-diazaspiro[4.5]dec-8-yl)-8-azabicyclo[3.2.1]octane-8-carboxylate] was tested, and the EC50 [1] was 126 nM, the “% Emax cf. ACh, M1” value ([1]; listed as 2-30 Isomer 1) was 107% and the EC50 [2] was 200 nM. It also gave an Emax [2] of 49%.
For `[2H]C([2H])([2H])COC(=O)N1C2CCC1CC(N1CCC3(CC1)CNC(=O)C3)C2` (single isomer, unassigned) [Example 2-31 Isomer 1], the EC50 [1] was 126 nM, the “% Emax cf. ACh, M1” value ([1]; listed as 2-31 Isomer 1) was 112% and the EC50 [2] was 251 nM. The “% Emax cf. ACh, M4” value ([2]; listed as 2-31 Isomer 1) was 53%.
For `CC(C)OC(=O)N1C2CCC1CC(N1CCC3(CC1)CNC(=O)C3)C2` (single isomer, unassigned) [Example 2-33 Isomer 1], the EC50 [1] was 31.6 nM, the “% Emax cf. ACh, M1” value ([1]; listed as 2-33 Isomer 1) was 37% and the EC50 [2] was 200 nM. The Emax [2] was 20%.
With `CC(C)OC(=O)N1C2CCC1CC(N1CCC3(CC1)CNC(=O)C3)C2` (single isomer, unassigned) [Example 2-33 Isomer 2] the EC50 [1] was 398 nM, the “% Emax cf. ACh, M1” value ([1]; listed as 2-33 Isomer 2) was 62% and the EC50 [2] was 316 nM. For the same compound, the “% Emax cf. ACh, M4” value [2] was 25%.
Work on `CSC(=O)N1C2CCC1CC(N1CCC3(CC1)CNC(=O)C3)C2` (single isomer, unassigned) [Example 2-34 Isomer 1] yielded an EC50 [1] of 501 nM, an Emax [1] of 50% and an EC50 [2] greater than 20000 nM. It also gave an Emax [2] of 8%.
For `CCSC(=O)N1C2CCC1CC(N1CCC3(CC1)CNC(=O)C3)C2` (single isomer, unassigned) [Example 2-35 Isomer 1], the EC50 [1] was 39.8 nM, the “% Emax cf. ACh, M1” value ([1]; listed as 2-35 Isomer 1) was 24% and the EC50 [2] was greater than 20000 nM. It also gave an Emax [2] of 7%.
For `CCSC(=O)N1C2CCC1CC(N1CCC3(CC1)CNC(=O)C3)C2` (single isomer, unassigned) [Example 2-35 Isomer 2], the EC50 [1] was 794 nM, the “% Emax cf. ACh, M1” value ([1]; listed as 2-35 Isomer 2) was 50% and the “% Emax cf. ACh, M4” value [2] was 10%.
With `CCOC(=O)N1CC2CCC1CC2N1CCC2(CC1)CNC(=O)C2` (single isomer, unassigned) [Example 3-1 Isomer 4, ethyl 5-(3-oxo-2,8-diazaspiro[4.5]dec-8-yl)-2-azabicyclo[2.2.2]octane-2-carboxylate] the EC50 [1] was 1260 nM, the “% Emax cf. ACh, M1” value ([1]; listed as 3-1 Isomer 4) was 62% and the EC50 [2] was greater than 20000 nM. For the same compound, the “% Emax cf. ACh, M4” value ([2]; listed as 3-1 Isomer 4) was 7%.
For `CCOC(=O)N1CC2CCC1CC2N1CCC2(CC1)CNC(=O)O2` (single isomer, unassigned) [Example 3-2 Isomer 1, ethyl 5-(2-oxo-1-oxa-3,8-diazaspiro[4.5]dec-8-yl)-2-azabicyclo[2.2.2]octane-2-carboxylate], the EC50 [1] was 251 nM, the Emax [1] was 111% and the EC50 [2] was 1260 nM. For the same compound, the Emax [2] was 29%.
`CCOC(=O)N1CC2CCC1CC2N1CCC2(CC1)CNC(=O)O2` (single isomer, unassigned) [Example 3-2 Isomer 2, ethyl 5-(2-oxo-1-oxa-3,8-diazaspiro[4.5]dec-8-yl)-2-azabicyclo[2.2.2]octane-2-carboxylate] was tested, and the EC50 [1] was 100 nM, the “% Emax cf. ACh, M1” value [1] was 127% and the EC50 [2] was 398 nM. The “% Emax cf. ACh, M4” value [2] was 36%.
For `CCOC(=O)N1CC2CCC1CC2N1CCC2(CC1)OC(=O)NC2CC` (single isomer, unassigned) [Example 3-3 Isomer 2, ethyl 5-(4-ethyl-2-oxo-1-oxa-3,8-diazaspiro[4.5]dec-8-yl)-2-azabicyclo[2.2.2]octane-2-carboxylate], the EC50 [1] was 794 nM, the Emax [1] was 76% and the EC50 [2] was 316 nM. The Emax [2] was 56%.
`CCOC(=O)N1CC2CCC(C1)C2N1CCC2(CC1)CNC(=O)C2` (single isomer, unassigned) [Example 4-1 Isomer 2] showed an EC50 [1] of 501 nM, an Emax [1] of 36% and an EC50 [2] greater than 20000 nM. It also gave an Emax [2] of 3%.
